The source of these data is PMC10087775, “ProX from marine Synechococcus spp. show a sole preference for glycine‐betaine with differential affinity between ecotypes” (Environmental Microbiology, 2022).

Read-outs that look alike come from different tables or passages of the source.

One assay concerns the target TmoX. More on the design: method as in Li et al. ([2015]). The note with it: ref Li et al. ([2015]); read-out: Affinity (K D); cited from earlier work.
A further assay addresses OpuAC. On the set-up: method as in Wolters et al. ([2010]). The settings on record: ref Wolters et al. ([2010]), read-out: Affinity (K D), cited from earlier work.
In the next assay the target is ChoX. More on the design: method as in Oswald et al. ([2008]). The settings on record: ref Oswald et al. ([2008]); read-out: Affinity (K D); cited from earlier work.
A further assay deals with (UniProt A0A7G8ITR3). The assay is described as follows: Modified DSF (isothermal analysis, FoldAffinity) binding affinity of MITS9220_ProX. The note with it: read-out: Affinity (K D). More on the design: species or system Synechococcus sp. MITS9220. How it is done:
(§1) The DSF assay was modified to elucidate binding kinetics, following a published protocol specifically outlining this application, and validated using SBPs (Bai et al., [2019]). Briefly, a range of protein concentrations were tested (2–20 μM) to determine the optimal signal‐to‐noise ratio while requiring a low protein concentration (5 μM). Protein solutions were prepared in Buffer A at a concentration of 10 μM, with a 50× concentration of SYPRO Orange dye. Working stocks of ligands were prepared independently (in Buffer A) at the following concentrations: 0.4, 0.8, 1.6, 3.2, 6.4, 12.8, 25, 50, 100, 200, 2000 μM. ProX protein and ligands (10 μl each) were both delivered in triplicate into a 96‐well plate (final volume 20 μl). Plates were centrifuged in a benchtop plate spinner (1 min) to ensure sample homogeneity before recording fluorescence data across the thermal ramp as previously described.
(§2) Data were processed using two independent software packages: the provided Python package (Bai et al., [2019]) and the web‐based FoldAffinity tool (Niebling et al., [2021]) to ensure their consistency and determine affinity values. The final values reported were taken from FoldAffinity. Processed results were then plotted (GraphPad Prism) to generate publication‐quality figures of the processed data.
(§3) Purified ProX samples were subjected to binding kinetics determination using a modified DSF approach (Bai et al., [2019]; Niebling et al., [2021]). This approach was selected due to aberrant noise in calorimetric and tryptophan quenching experiments, attributed to possible dimer‐monomer interconversion co‐occurring with ligand‐binding events. […] This is related to the proportion of folded versus unfolded protein at a single temperature (isothermal analysis) using a selected temperature value (T sel ) slightly above the T M previously determined. Using the FoldAffinity tool (Niebling et al., [2021]), non‐linear regression and curve fitting of the processed thermal melt curves allowed the determination of ligand dissociation constants (K D ) for each protein and ligand partner.

Assay [1] deals with T1, WH8102_ProX (Parasynechococcus marenigrum, UniProt Q7U4Z5). Kind of assay: Modified DSF (isothermal analysis, FoldAffinity) binding affinity of WH8102_ProX. The note with it: for Kd: read-out: Affinity (K D). On the set-up: species or system Synechococcus sp. WH8102. How it is done: as §1, §2, §3
T1 sequence (Q7U4Z5 entry or part of it): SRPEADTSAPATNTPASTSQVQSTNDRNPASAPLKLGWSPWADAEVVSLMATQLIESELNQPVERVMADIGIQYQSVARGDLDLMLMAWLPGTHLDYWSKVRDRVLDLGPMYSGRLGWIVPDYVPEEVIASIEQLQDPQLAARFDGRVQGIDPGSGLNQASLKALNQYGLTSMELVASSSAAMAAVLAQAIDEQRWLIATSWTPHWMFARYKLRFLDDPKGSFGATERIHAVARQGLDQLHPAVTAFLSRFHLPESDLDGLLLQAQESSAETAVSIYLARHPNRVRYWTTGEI
Assay [2] addresses ProX. More on the design: method as in Schiefner, Holtmann, et al. ([2004]). The settings on record: ref Schiefner, Holtmann, et al. ([2004]); read-out: Affinity (K D); cited from earlier work.
In assay [3] the target is ProX. More on the design: method as in Schiefner, Breed, et al. ([2004]). The note with it: ref Schiefner, Breed, et al. ([2004]); read-out: Affinity (K D); cited from earlier work.
The test system of another assay is MITS9220_ProX. The assay is described as follows: DSF thermal melt ligand screening of MITS9220_ProX. It counts as binding, Synechococcus sp. MITS9220. The settings on record: ligand tested independently by DSF. How it is done: (§4) Commercially available libraries of small molecules were tested as potential binding partners to ProX by recording differential scanning fluorimetry (DSF) responses over a thermal gradient (Neisen et al., [2007]). SYPRO Orange dye (Invitrogen) was used to monitor fold integrity in discrete protein mixtures by measuring fluorescence at 590 nm following excitation at 485 nm using a Stratagene MX3000P q‐PCR instrument. Compounds tested in 96‐well blocks incorporated common protein stabilizing ligands (HR2‐096 Silver Bullets, Hampton Research) and single‐molecule osmolyte sources (MicroPlate PM9, Biolog Inc). The concentration of these compounds following reaction set‐up was ~4 μM, and, therefore below the concentration required to effect complete saturation of the binding pocket. Each condition was tested in triplicate, with each plate containing a control well with no additive.
(§5) Thermal melt curves were analysed using the analysis template provided (Neisen et al., [2007]) and fitting of Boltzmann distribution (GraphPad Prism) for the determination of mid‐point thermal melt temperatures (Bai et al., [2019]). The only condition (Silver Bullets well #D8) leading to a significant increase (>3°C) in melting temperature was deconvoluted to identify the single component leading to such a change and repeated in triplicate.
(In DSF a fluorescence change marks the thermal transition of the protein.)

In assay [4] the target is T1, WH8102_ProX. Kind of assay: DSF thermal melt ligand screening of WH8102_ProX. The note with it: ligand tested independently by DSF. It counts as binding, Synechococcus sp. WH8102. How it is done:
as §4, §5

[5] abbreviates: 0.50 M NaCl (Buffer A), Tsel 62°C.

Chain of (UniProt A0A7G8ITR3) (A0A7G8ITR3 40-334 limits assumed): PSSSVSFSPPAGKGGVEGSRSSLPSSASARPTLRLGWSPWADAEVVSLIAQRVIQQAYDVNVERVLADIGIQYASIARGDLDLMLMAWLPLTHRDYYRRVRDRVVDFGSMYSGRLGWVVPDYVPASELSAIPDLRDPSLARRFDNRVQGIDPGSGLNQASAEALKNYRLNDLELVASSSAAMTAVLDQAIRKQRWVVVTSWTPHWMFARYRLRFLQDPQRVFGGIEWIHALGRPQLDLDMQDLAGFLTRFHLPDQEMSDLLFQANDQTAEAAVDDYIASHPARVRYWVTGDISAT

As to `C[N+](C)(C)[O-]` [Trimethylamine oxide], on TmoX, the Kd was 1.6 µM.

On to `O=C(O)[C@@H]1CCCN1` [Proline], for which the Kd on OpuAC (dash with footnote b) is > 10000 µM.

In the case of `C[N+](C)(C)CC(O)CC(=O)[O-]` (stereo not shown) [Carnitine], the Kd at OpuAC (dash with footnote b) was > 10000 µM.

For `CC(=O)OCC[N+](C)(C)C` [Acetylcholine], the Kd at ChoX was 145 µM.

As for `C[N+](C)(C)CCO` [Choline], the results for the Kd at ChoX and at TmoX were 2.7 µM and 3.8 µM, respectively.

`C[N+](C)(C)CC(=O)[O-]` [glycine betaine]: the Kd was 1.1 µM at (UniProt A0A7G8ITR3) (0.25 M NaCl); 1.2 µM at (UniProt A0A7G8ITR3) (setting [5]); 0.52 µM at (UniProt A0A7G8ITR3) (1.5 M NaCl); 13 ± 0.5 µM on WH8102_ProX [1] (0.25 M NaCl); 12 µM on WH8102_ProX [1] (0.50 M NaCl (Buffer A)); 13 ± 0.7 µM on WH8102_ProX [1] (1.5 M NaCl). The Kd was 0.06 µM at ProX [2] and 1 µM at ProX [3].

For the molecule `C[N+]1(C)CCC[C@H]1C(=O)[O-]` [proline betaine], the TM shift result is “approximately 4 °C” with MITS9220_ProX and < 2 °C on WH8102_ProX [4]. Also, the Kd was > 1000 µM on (UniProt A0A7G8ITR3) (setting [5]); 250 ± 80 µM at WH8102_ProX [1] (0.50 M NaCl (Buffer A)); 0.05 µM on ProX [2]; 5 µM on ProX [3]; 41 µM on OpuAC. For the same molecule, the “shifts in observed melting temperatures upon incremental addition of ligand” value at WH8102_ProX [1] (modified DSF, Figure S3) is “negligible shifts”.
